Reference: PMC3160846 (PLoS ONE, 2011)
Values joined by “and” are separate entries in the source; they are usually repeats but may differ in a detail not shown here. Equal values may be shown once.

Experiments:
CHK2 = target: T1, CHK2 (Homo sapiens, UniProt O96017); assay: Kinase inhibition assay, CHK2; type: biochemical
T1 construct: CHK2 (residues M1-L543) containing kinase domain; His; made in house; host or cells: Sf9 insect cells
Method: CHK1/2 – The recombinant His-tagged CHK1 (residues M1-T476) or CHK2 (residues M1-L543) containing kinase domain were expressed in Sf9 insect cells. The kinase assay was carried out in 96-well plates with the tested compound at 30°C for 120 min.
(§1) Composition of the reaction buffers used in different kinase inhibitory assays is described in Figure S3.
25 mM HEPES pH 7.4, 10mM MgCl2, 4mM MnCl2, 0.5mM Na3VO4, 2 mM DTT, 0.02% Triton X100, 0.01% BSA, 1 mM ATP, 2 mM CHK peptide ([…]), 50~500 ng recombinant CHK1 or CHK2.

VEGFR2 = target: T2, VEGFR2 (Homo sapiens, UniProt P35968); assay: Kinase inhibition assay, VEGFR2; type: biochemical
T2 construct: VEGFR2 (residues V789-V1356) containing kinase domain; GST; made in house; host or cells: Sf9 insect cells
Method: VEGFR1/2 – The recombinant GST-tagged VEGFR1 (residues R781-I1338) or VEGFR2 (residues V789-V1356) containing kinase domain were expressed in Sf9 insect cells. The kinase assay was carried out in 96-well plates with the tested compound at 30°C for 120 min.
as §1
25 mM HEPES pH 7.4, 10 mM MgCl2, 4mM MnCl2, 0.5mM Na3VO4, 2 mM DTT, 0.02% Triton X100, 0.01% BSA, 1 mM ATP, 2 mM polyGlu4:Tyr peptide, 50~100 ng recombinant VEGFR1 or VEGFR2.

HONE-1 cells = assay: Western blot of Histone H3 phosphorylation and cyclin B1, HONE-1; type: cell-based, Human; conditions: HONE-1, 48 h
Method: Cells were lysed with ice-cold lysis buffer (10 mM Tris, 1 mM EDTA, 1 mM DTT, 60 mM KCl, 0.5% NP-40 and protease inhibitors). […] The resolved proteins were electrophoretically transferred to PVDF membranes (Amersham Life Science, Amersham, U.K.) for Western blot analysis. The membranes were blocked with 5% non-fat milk at room temperature for two hours, washed twice with TBST (1% Tween) and then incubated with either anti-phosphorylated Aurora-A/-B/-C kinase antibody (#2914S, Cell Signaling Technology, Danvers, MA), anti-Aurora-A and -B kinase antibody (#ab1287 and #ab2254, Abcam, Cambridge, MA), anti-phosphorylated Histone H3 antibody (#9701, Cell Signaling Technology, Danvers, MA), anti-Histone H3 antibody (#9715, Cell Signaling Technology, Danvers, MA), anti-Cyclin B1 antibody or anti-Actin antibody (#sc-245 and #sc-130065, Santa Cruz Biotechnology, Santa Cruz, CA) overnight at 4°C. Membranes were washed twice with TBST then subsequently incubated with a horseradish peroxidase-conjugated secondary antibody (Santa Cruz Biotechnology, Santa Cruz, CA) for 1 hour at room temperature. Immunoreactivity was detected by Enhanced Chemiluminescence (Amersham International, Buckingham, U.K.) and autoradiography. Experiments were repeated independently at least two times.

[1] = Pharmacokinetic study in rats; type: in vivo; conditions: 5 mg/kg i.v.
Method: Male Sprague-Dawley rats weighing 300–400 g each (8–12 weeks old) were obtained from BioLASCO, Taiwan Co., Ltd., Ilan, Taiwan. Animals were surgically prepared with a jugular-vein cannula one day prior to dosing and fasted overnight (∼18–20 h) prior to dosing. Water was available ad libitum throughout the experiment. Single 5 mg/kg dose of BPR1K653, as a DMA/PEG (20/80, v/v) solution, was separately administered to groups of 3 rats each intravenously by a bolus injection via the jugular-vein cannula. At 0 (prior to dosing), 2, 5, 15 and 30 min, and at 1, 2, 4, 6, 8 and 24 h after dosing, a blood sample (0.15 mL) was collected from each animal via the jugular-vein cannula and stored in ice (0–4°C). Plasma was separated from the blood by centrifugation (14,000 g for 15 min at 4°C in a Beckman Model Allegra™ 6R centrifuge) and stored in a freezer (−20°C). All samples were analyzed for the parent drug by LC-MS/MS. LC/MS/MS conditions: The chromatographic system consisted of an Agilent 1200 series LC system and an Agilent ZORBAX Eclipse XDB-C8 column (5 µm, 3.0×150 mm) was connected to a MDS Sciex API3000 tandem mass spectrometer, which was equipped with a Turbo V™ ESI in the positive scanning mode at 600°C. Data was acquired via the multiple reactions monitoring (MRM) system. The MS/MS ion transitions were monitored at m/z of 541.4/106.4 for BPR1K653. The collision energy of 58.0 V was used for the analyst, BPR1K653. A gradient HPLC method was employed for the separation. Mobile phase A consisted of water containing 0.1% formic acid, and mobile phase B consisted of acetonitrile. The gradient profile was shown as follows (min/%B): 0.0–1.2/5, 1.3–3.9/95, 4.0–5.0/5. The flow rate was set to be 1.5 mL/min. The auto-sampler was programmed to inject 15 µL sample aliquots in every 5 min. The retention time of BPR1K653 was 2.39 min. Plasma concentration data were analyzed with non-compartmental method.

T1 sequence (O96017 whole entry, the tested form may be a part): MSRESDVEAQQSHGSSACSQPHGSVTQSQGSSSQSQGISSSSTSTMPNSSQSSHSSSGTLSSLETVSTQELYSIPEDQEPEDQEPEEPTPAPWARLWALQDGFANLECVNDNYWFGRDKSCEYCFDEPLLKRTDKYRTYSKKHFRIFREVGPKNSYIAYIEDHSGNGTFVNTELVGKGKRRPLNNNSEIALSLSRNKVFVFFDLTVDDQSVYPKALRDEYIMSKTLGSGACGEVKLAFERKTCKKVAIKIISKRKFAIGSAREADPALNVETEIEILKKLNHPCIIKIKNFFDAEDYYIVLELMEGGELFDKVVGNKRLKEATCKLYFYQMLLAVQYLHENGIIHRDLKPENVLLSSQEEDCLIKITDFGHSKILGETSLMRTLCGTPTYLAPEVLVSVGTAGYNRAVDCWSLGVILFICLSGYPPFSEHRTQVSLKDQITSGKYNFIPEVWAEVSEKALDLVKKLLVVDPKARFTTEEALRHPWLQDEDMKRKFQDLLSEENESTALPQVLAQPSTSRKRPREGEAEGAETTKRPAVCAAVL
T2 sequence (P35968 789-1356): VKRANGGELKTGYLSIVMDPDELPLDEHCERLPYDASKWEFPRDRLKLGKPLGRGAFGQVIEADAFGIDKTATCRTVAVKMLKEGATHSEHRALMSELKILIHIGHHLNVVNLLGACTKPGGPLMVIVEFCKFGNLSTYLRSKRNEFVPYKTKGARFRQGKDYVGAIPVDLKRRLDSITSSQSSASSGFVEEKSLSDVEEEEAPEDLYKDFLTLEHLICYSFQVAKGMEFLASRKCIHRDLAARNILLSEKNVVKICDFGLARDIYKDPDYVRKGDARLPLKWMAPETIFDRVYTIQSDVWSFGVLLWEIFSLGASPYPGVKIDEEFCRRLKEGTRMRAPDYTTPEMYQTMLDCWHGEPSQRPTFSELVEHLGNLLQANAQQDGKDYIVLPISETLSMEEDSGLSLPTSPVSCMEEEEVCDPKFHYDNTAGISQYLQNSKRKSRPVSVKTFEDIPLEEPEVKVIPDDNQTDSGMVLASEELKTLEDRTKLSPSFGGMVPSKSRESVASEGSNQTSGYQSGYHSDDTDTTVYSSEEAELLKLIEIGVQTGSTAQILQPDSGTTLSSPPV

## CN(C)Cc1ccccc1NC(=O)Nc1ccc(CCNc2ncnc3oc(-c4ccccc4)c(Cl)c23)cc1 [BPR1K653]
CHK2
  IC50: 2300 nM
VEGFR2
  IC50: > 10000 nM
HONE-1 cells
  phosphorylation of Histone H3 and expression of cyclin B1: decreased
[1]
  maximum plasma concentration above the in vitro kinase inhibition IC50 of Aurora-A: more than 80 fold
  maximum plasma concentration above the in vitro kinase inhibition IC50 of Aurora-B: > 200 fold
[1]; at 2 min after dosing, 5 mg/kg
  maximum plasma concentration: 10 µM and 5463 ng/mL
[1]; male, Sprague-Dawley, rat, plasma, iv, read-out: Area under the curve (AUC(0-inf))
  AUC(0-inf): 1750 ng·h/mL
[1]; male, Sprague-Dawley, rat, plasma, iv, read-out: Plasma half life (t1/2) (converted)
  half-life: 3.9 h
[1]; male, Sprague-Dawley, rat, plasma, iv, read-out: Total body clearance (CL)
  clearance: 49.3 mL/min/kg
[1]; male, Sprague-Dawley, rat, plasma, iv, read-out: Volume of distribution at the steady state (Vss)
  Vd: 10.6 ± 5.1 L/kg
[1]; male, Sprague-Dawley, rat, plasma, iv, 5 mg/kg, read-out: estimated plasma concentration 24 h after dosing
  concentration at 24 h: 3.9 nM and 2.1 ng/mL
